Laboratory results published in US20140303105A1, “Primycin and components thereof for use in the treatment or prevention of infections caused by specific pathogens” (PANNONPHARMA GYÓGYSZERGYÁRTÓ ZRT., priority 2011, published 2014).
Where two headings read alike, the source gives them in different places.

How the values were obtained:
[1] = tested on: Coagulase-negative Staphylococus sp., methicillin susceptible; experiment: Standard microdilution susceptibility test, clinical isolates; type: cell-based; details: 10 clinical isolates
[2] = tested on: Enterococcus sp., vancomycin susceptible; experiment: as above; type: cell-based; details: 20 clinical isolates
[3] = tested on: Bacillus subtilis ATCC 6633; experiment: Microdilution MIC, ATCC reference strains; type: cell-based
Method: (§1) Identification and characterization of resistance patterns of these bacteria were performed by standard methods.
(§2) When forming the test groups we attached great importance to the increasing incidence of drug-resistant microbes causing therapeutic problems. Most important of them are methicillin-resistant Staphylococcus aureus (MRSA), methicillin-resistant coagulase-negative Staphylococcus spp. (MRCoNS), penicillin-resistant Streptococcus pneumoniae (pneumococcus), vancomycin-resistant Enterococcus spp. (VRE). Pneumococcus isolates represented various serotypes, VRE isolates belonged to various species. Moreover, vancomycin-resistance of VRE isolates was based on different genetic backgrounds. Antibiotic-resistant strains were also represented among international reference strains, for example methicillin-resistant Staphylococcus aureus ATCC 43300 (MRSA), Staphylococcus aureus with decreased vancomycin susceptibility ATCC 700698 and 700699 (vancomycin intermediate Staphylococcus aureus—VISA), mupirocin-resistant Staphylococcus aureus ATCC BAA1708 and vancomycin-resistant Enterococcus faecalis ATCC 51299 (VRE).
(§3) Susceptibility tests were performed according to the standard microdilution method (NCCLS (CLSI) M7-A7).
(§4) The lowest concentration at which no bacterial growth was observed after the incubation period is the Minimal Inhibitory Concentration (MIC). The MIC value is inversely proportional to the antimicrobial efficacy. MIC values of antimicrobial agents can differ by species or even by bacterial strains within species.

[4] = tested on: Enterococcus faecalis ATCC 29212; experiment: Microdilution MIC, ATCC reference strains; type: cell-based
Method: as §1, §2, §3, §4

[5] = tested on: Enterococcus faecalis ATCC 51299 (VRE); experiment: Microdilution MIC, ATCC reference strains; type: cell-based
Method: as §1, §2, §3, §4

[6] = tested on: Enterococcus hirae ATCC 8043; experiment: Microdilution MIC, ATCC reference strains; type: cell-based
Method: as §1, §2, §3, §4

[7] = tested on: Escherichia coli ATCC 25922; experiment: Microdilution MIC, ATCC reference strains; type: cell-based
Method: as §1, §2, §3, §4

[8] = tested on: Staphylococcus aureus ATCC 25923; experiment: Microdilution MIC, ATCC reference strains; type: cell-based
Method: as §1, §2, §3, §4

[9] = tested on: Staphylococcus aureus ATCC 29213; experiment: Microdilution MIC, ATCC reference strains; type: cell-based
Method: as §1, §2, §3, §4

[10] = tested on: Staphylococcus aureus ATCC 43300 (MRSA); experiment: Microdilution MIC, ATCC reference strains; type: cell-based
Method: as §1, §2, §3, §4

[11] = tested on: Staphylococcus aureus ATCC 700698 (VISA); experiment: Microdilution MIC, ATCC reference strains; type: cell-based
Method: as §1, §2, §3, §4

[12] = tested on: Staphylococcus aureus ATCC 700699 (VISA); experiment: Microdilution MIC, ATCC reference strains; type: cell-based
Method: as §1, §2, §3, §4

[13] = tested on: Staphylococcus aureus ATCC BAA1708 (mupirocin-resistant); experiment: Microdilution MIC, ATCC reference strains; type: cell-based
Method: as §1, §2, §3, §4

Streptococcus ATCC 49619 = experiment: Microdilution MIC, ATCC reference strains; type: cell-based
Method: as §1, §2, §3, §4

[14] = tested on: Staphylococcus aureus 7503; details: cited from earlier work
[15] = tested on: Staphylococcus saprophyticus 8454; details: cited from earlier work
[16] = tested on: Streptococcus simulans 7866; details: cited from earlier work
[17] = tested on: Staphylococcus aureus ATCC 25923; details: cited from earlier work
Propionibacterium acnes [18] = details: cited from earlier work
S. aureus ATCC 25923 [19] = details: by Bryskier; cited from earlier work
B. subtilis ATCC 6633 = details: by Bryskier; cited from earlier work
Enterobacter cloacae = details: by Bryskier; cited from earlier work
Propionibacterium acnes [20] = details: by Bryskier; cited from earlier work
S. aureus ATCC 25923 [21] = details: Uri and Actor 1979; cited from earlier work
Gram-negative species = details: Horváth 1979; the patent calls the statement unfounded; cited from earlier work
[22] = tested on: Bacillus spp. and Micrococcus spp.; details: Bryskier 2005; cited from earlier work
[23] = tested on: Corynebacterium spp., Enterobacteriaceae species, Pseudomonas aeruginosa, yeasts and dermatophytes; details: Bryskier 2005; cited from earlier work

Primycin
MIC 50% [1]: 0.03 µg/mL | MIC 90% [1]: 0.06 µg/mL | MIC Range [1]: 0.03 to 0.06 µg/mL | Ratio of Sensitive/Total [1]: 10/10 | MIC 50% [2]: 0.5 µg/mL | MIC 90% [2]: 0.5 µg/mL | MIC Range [2]: 0.5 to 1 µg/mL | Ratio of Sensitive/Total [2]: 20/20 | Primycin MIC [3]: 0.03 µg/mL | Primycin MIC [4]: 0.5 µg/mL | Primycin MIC [5]: 1 µg/mL | Primycin MIC [6]: 0.5 µg/mL | Primycin MIC [7]: >64 µg/mL | Primycin MIC [8]: 0.06 µg/mL | Primycin MIC [9]: 0.06 µg/mL | Primycin MIC [10]: 0.06 µg/mL | Primycin MIC [11]: 0.06 µg/mL | Primycin MIC [12]: 0.125 µg/mL | Primycin MIC [13]: 0.06 µg/mL | Primycin MIC (Streptococcus ATCC 49619): 0.5 µg/mL | MIC [14]: 0.39 µg/mL | MIC [15]: 0.39 µg/mL | MIC [16]: 0.39 µg/mL | MIC [17]: 25.0 µg/mL | MIC (Propionibacterium acnes [18]): <0.1 µg/mL | MIC (S. aureus ATCC 25923 [19]): 25 µg/mL | MIC (B. subtilis ATCC 6633): 0.39 µg/mL | MIC (Enterobacter cloacae): 50 µg/mL | MIC (Propionibacterium acnes [20]): <0.1 µg/mL | MIC (not inhibited at the highest concentration tested) (S. aureus ATCC 25923 [21]): > 2 µg/mL | MIC versus Gram-positives (Gram-negative species): hundred times higher | efficacy [22]: effective | efficacy [23]: ineffective
